# According to patent US12350244B2, “MEK-inhibitor for the treatment of viral and bacterial infections” (priority 2019, dated 2025):
# Read-outs that look alike come from different tables or passages of the source.
# Tests used:
# [1] = tested on: S. aureus 6850; assay: Over-night treatment, bacterial titers (CFU/ml), strain 6850; assay type: cell-based, Staphylococcus aureus; settings: for effect on bacterial titers: over-night treatment, concentrations as indicated in figures
# [2] = tested on: H1N1pdm09; assay: Lung virus titration assay in mice (Example 11); assay type: in vivo, C57BL/6 mice; settings: for virus titer in the lung (control set to 100%): 24 h after infection
# Procedure: (A) After H1N1pdm09 infection female C57BL/6 mice were treated with either 2.8, 8.4 or 25 mg/kg PD-0184264 (left side) or with 25, 75 or 150 mg/Kg […] (left side) the oral route. 24 hrs after infection the animals were killed and lung was taken to prepare a 10% suspension. Virus titer was determined using the standard method. Virus titer of mice treated with the two MEK-inhibitors were compared to virus titer of mice treated with solvent (Control) alone. Virus tier in the lungs of control mice was set to 100% (black bar). Graphpad Prism 7 software was used to illustrate both figures.
# For oral application of 25 mg/kg, 2.5 mg of PD-0184264 were dissolved in 50 μl DMSO (Sigma-Aldrich, Germany) and further diluted with 0.15 ml Cremophor EL (Merck-Millipore, Germany) and 0.8 ml PBS (Gibco, Germany). For application of 8.4 mg/kg and 2.8 mg/kg, 0.84 mg or 0.28 mg PD-0184264 were dissolved with 50 μl DMSO (Sigma-Aldrich, Germany) and further diluted with 0.15 ml Cremophor EL/0.8 ml PBS.
# Eight week old female C57Bl/6 mice (Charles River Laboratories, Germany) with a body weight of 21.0-24.0 g at administration were used for antiviral studies. The animals were normally fed. Drinking water was available ad libitum.
# Drugs were administrated using a single dosing on test day 1 by oral gavage. The application speed was 15 s per dose with an administration volume of 200 μl.
# Mice were sacrificed 24 h post infection and lungs were weighed, transferred into a Lysing Matrix D tube (MP Bio) and BSS was applied in an amount of the 10-fold volume of the lung. Organs were shredded using the FastPrep FP 120 (Savant). To remove the cell debris the homogenates were centrifuged for 15 min at 2000 rpm and the supernatant collected. The determination of virus titer in homogenates was performed using the AVICEL® plaque assay as described previously (Haasbach et al. 2011, Mastrosovich et al. 2006).
# [3] = tested on: influenza virus; settings: mouse model, cited from earlier work; for effect of treatment started late post infection: 48 h or more post infection, previous studies
# [4] = tested on: S. aureus; assay: Resistance development under constant treatment for 17 days; assay type: cell-based, Staphylococcus aureus; settings: 24 h cycles repeated for 17 days
# [5] = tested on: influenza virus strain A/Regensburg/D6/2009, (RB1, H1N1pdm09); assay: Lung virus titer in influenza-infected mice (Example 1); assay type: in vivo, C57BL/6 mice
# Procedure: 8 weeks old C57BL/6 mice (five per group) were infected with 1.5×10^5 PFU (5×MLD50) of the influenza virus strain A/Regensburg/D6/2009, (RB1, H1N1pdm09). […] All animals received a volume of 200 μl per os. Mice were sacrificed 24 h post infection and lungs were weighed, transferred into a Lysing Matrix D tube (MP Bio) and BSS (buffered salt solution) in an amount of the 10-fold volume of the lung was applied to the samples. Organs were shredded using the FastPrep FP 120 (Savant). To remove the cell debris the homogenates were centrifuged for 15 min at 2000 rpm and the supernatant collected. The determination of virus titer in homogenates was performed using the AVICEL® plaque assay. Results are presented in FIG. 1 as virus titer (log 10) pfu/ml (left) or % virus titer (right). Virus titer was determined by two investigators independently. Mean values from all titrations were presented.
# [6] = tested on: MRSA strain USA300; assay: Over-night treatment, bacterial titers (CFU/ml), MRSA USA300; assay type: cell-based, Staphylococcus aureus; settings: for effect on bacterial titers: over-night treatment, concentrations as indicated in figures
# [7] = tested on: A549 cells infected with IAV (H1N1) and/or S. aureus 6850; assay type: cell-based
# [8] = tested on: S. aureus 6850; assay: Time-of-addition assay, bacterial growth; assay type: cell-based, Staphylococcus aureus
# [9] = tested on: S. aureus strain 6850; assay: Bacterial growth under heat stress, strain 6850; assay type: cell-based, Staphylococcus aureus; settings: 20 μM over night, then 42° C. for 6 h
# Procedure: (§1) As the kinase is known to play an important role in bacterial stress resistance, bacterial growth under heat stress was monitored after treatment of the bacteria with the inhibitor PD-0184264. S. aureus strain 6850 and MRSA strain USA300 were treated over night with either solvent or 20 μM of the PD-0184264. The next day subcultures with the same amount of bacteria were prepared (confirmed by OD600 and plating on BHI agar) and further incubated at 42° C. for 6 h. Bacterial titers were then calculated via plating of serial dilutions on BHI agar plates. […] This is both observed for the methicillin-sensitive strain 6850 (black bars) as well as for the MRSA strain USA300 (grey bars). Impaired stress tolerance in the presence of the inhibitor is another indication that PD-0184264 directly targets the kinase PknB, which is an important mediator of stress resistance. In summary, the data provide strong circumstantial evidence, that PD-0184264 elicits its antibacterial action by inhibition of the bacterial kinase PknB.
# [10] = tested on: MRSA strain USA300; assay: Bacterial growth under heat stress, MRSA USA300; assay type: cell-based, Staphylococcus aureus; settings: 20 μM over night, then 42° C. for 6 h
# Procedure: as §1
# [11] = tested on: Streptococcus pneumoniae strains TIGR4 (serotype 4) and D39 wt (serotype 2); assay: Growth of Streptococcus pneumoniae (OD600, CFU/ml); assay type: cell-based; settings: over-night treatment, different concentrations
# Procedure: Additionally, these kinases share high homology to cellular MAP kinases (e.g. ERK, JNK, p38). […] Thus, the impact of PD-0184264 on different strains of Streptococci pneumonia was analyzed. Streptococcus pneumoniae strains can be divided into different serotypes, which differ in their virulence and overall pathogenicity. To test for a serotype- or strain-independent effect, we used the encapsulated strains D39 and TIGR4, which are both virulent, but belong to different serotypes. […] Then, the OD600 was measured again (Results shown in FIG. 11A) and dilution series were objected to BHI agar plates to determine bacterial titers (Results shown in FIG. 11B).
# [12] = tested on: A549 cells; assay: A549 cell viability (trypan blue) and LDH release; assay type: cell-based, human; settings: 1, 5, 10, 20, 50 or 100 μM, 24 or 48 hours
# Procedure: To rule out that the reduction in viral and intracellular bacterial replication was a result of a cytotoxic effect of PD-0184264 on A549 cells, cell viability in presence of increasing concentrations was monitored for 24 and 48 hours. Additionally, a LDH-Assay was performed to determine membrane rupture due to inhibitor treatment. […] A549 cells were treated for 24 (as shown in FIGS. 15A and C) or 48 (as shown in FIGS. 15B and D) hours with increasing concentrations of PD-0184264 (1, 5, 10, 20, 50 or 100 μM). After the incubation times, supernatants were taken for measurement of LDH release (shown in FIGS. 15C, D) using the CytoSelect LDH Cytotoxicity Assay Kit according to the manufacturer's instructions. Additionally, viable cells were counted by staining with trypan blue. Cell viability was normalized to DMSO-treated cells and is shown as % viability. […] Statistical significance was calculated by one-way ANOVA followed by Dunnett's multiple comparisons test (* p<0.05; ** p<0.01; 27 *** p<0.001).
# [13] = tested on: A549 cells; assay: WST-assay; assay type: cell-based, human; settings: 24 h, FIG. 17C
# Procedure: A549 cells were seeded in a 96-well flat-bottom tissue plate (Greiner, Germany) and were grown overnight. […] Thereafter, 10 μl WST-1 reagent (Roche, Germany) was added to the culture medium and incubated for four hours. During this time, the stable tetrazolium salt WST-1 was cleaved to a soluble formazan by metabolically active cells in the culture. After this incubation period, the formazan dye formed was quantitated with ELISA reader at 405 nm. The measured absorbance directly correlated to the number of viable cells.
# [14] = tested on: strain A/Regensburg/D6/2009 Influenza H1N1pdm09; assay: Survival of infected mice with late start of treatment; assay type: in vivo, C57BL/6 mice; settings: 25 mg/kg oral BID
molecule,measurement,setting,value
"O=C(NOCC1CC1)c1ccc(F)c(F)c1Nc1ccc(I)cc1Cl [CI-1040, 2-(2-chloro-4-iodophenylamino)-N-(cyclopropylmethoxy)-3,4-difluoro benzamide, reference compound]",effect on bacterial titers,[1],effective
same,doses showing any effect in reduction of virus titer,"[2]; oral, 25, 75 or 150 mg/kg tested",≥ 75 mg/kg
same,treatment window post infection,[3]; Haasbach et al. 2017 and further experiments of the applicant,at least 48 h
CC[C@H]1OC(=O)[C@H](C)[C@@H](O[C@H]2C[C@@](C)(OC)[C@@H](O)[C@H](C)O2)[C@H](C)[C@@H](O[C@@H]2O[C@H](C)C[C@H](N(C)C)[C@H]2O)[C@](C)(O)C[C@@H](C)C(=O)[C@H](C)[C@@H](O)[C@]1(C)O [Erythromycin],resistance development,[4],readily develop resistances
"O=C(O)c1ccc(F)c(F)c1Nc1ccc(I)cc1Cl [PD-0184264, 2-(2-chloro-4-iodophenylamino)-N-3,4-difluoro benzoic acid]","virus titer in the lung, effect compared with CI-1040","[5]; 25 mg/kg PD-0184264 per os in an 8 h interval, 24 h post infection, FIG. 1",same effect as 150 mg/kg CI-1040
same,efficacy in vivo by oral administration,[5]; 25 and 75 mg/kg per os,effective
same,bacterial growth,"[1]; 10 μM, FIG. 4 (strains 6850 and USA300)",significant reduction of growth
same,effect on bacterial titers,[1],very strong reduction in bacterial load
same,effect on bacterial titers,[6],very strong reduction in bacterial load
same,concentration at which reduction of the cytopathic effect is already shown,"[7]; co-infection, FIG. 5",15 µM
same,"cytopathic effect (CPE), cell monolayer","[7]; increasing concentrations, 24 h, IAV H1N1 MOI 0.001 and S. aureus 6850 MOI 0.1",reversed in a concentration dependent manner
same,inhibition of bacterial growth compared with all other compounds,"[8]; 0, 3 h and 6 h post inoculation, versus U0126 and gentamicin 0.5 or 2 μg/ml",strongest inhibition of bacterial growth
same,mode of antibacterial action,[8]; after medium exchange and incubation without substances,bacteriostatic rather than a bactericidal action
same,resistance development,[4],did not induce resistance
same,bacterial growth under heat stress,[9],strongly impaired
same,bacterial growth under heat stress,[10],strongly impaired
same,"sensitivity of both serotypes (OD600, bacterial titers)",[11],sensitive
same,"cell toxicity (viability, LDH release)",[12],does not induce cell toxicity
same,CC50,[13],> 1580 µM
same,virus titer in the lung (control set to 100%),[2]; 2.8 mg/kg oral,approx. 70%
same,virus titer in the lung (control set to 100%),[2]; 8.4 mg/kg oral,approx. 20%
same,virus titer in the lung (control set to 100%),[2]; 25 mg/kg oral,approx. 10%
same,mice protected (survival),[14]; treatment started 24 hours after infection,six out of eight
same,mice protected (survival),[14]; treatment started 48 hours after infection,five out of eight
same,mice protected (survival),[14]; treatment started 72 hours after infection,two out of eight
N#CC(=C(/N)Sc1ccccc1N)/C(C#N)=C(\N)Sc1ccccc1N [U0126],effect on bacterial titers,[1],minor reduction in bacterial titers
same,effect on bacterial titers,[6],minor reduction in bacterial titers
CCOC(=O)C1=C[C@@H](OC(CC)CC)[C@H](NC(C)=O)[C@@H](N)C1 [oseltamivir],effect of treatment started late post infection,[3],no longer effective
same,effect of treatment started late post infection,[3]; listed as Tamiflu,no effect
Gentamicin,bacterial titers,"[1]; 0.5 μg/ml, over night",no reduction in bacterial titers
same,bacterial titers,"[6]; 0.5 μg/ml, over night",no reduction in bacterial titers
same,resistance development,[4],resistance development occurred during the first week of treatment
